What was measured:
Assay in all cases: relative viability (nuclei count vs DMSO), 5 days (fraction); higher = more cells survive
[1] = compound: CC(C)=CC[C@@H](O)C1=CC(=O)c2c(O)ccc(O)c2C1=O [Shikonin] + Nc1ncn([C@H]2C[C@H](O)[C@@H](CO)O2)c(=O)n1 [Decitabine] (partner 2 µM)
Outline: (§1)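 Medians of duplicate plates are given as relative viability. That measure is the nuclei count in treated wells divided by the count in vehicle wells. Counts were taken on 4× images of lung cancer cell lines in 1536-well plates, 5 days after pin-tool dosing the day after seeding with one drug alone or a fixed anchor-drug dose plus five library-drug doses (not always all listed) in √10 steps.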

[2] = compound: CC(C)N(CCCNC(=O)Nc1ccc(C(C)(C)C)cc1)C[C@H]1O[C@@H](n2ccc3c(N)ncnc32)[C@H](O)[C@@H]1O + Cc1cc(Nc2cc(N3CCN(C)CC3)nc(Sc3ccc(NC(=O)C4CC4)cc3)n2)n[nH]1 [Tozasertib] (partner 0.1 µM)
Outline: as §1

[3] = compound: CC(C)N(CCCNC(=O)Nc1ccc(C(C)(C)C)cc1)C[C@H]1O[C@@H](n2ccc3c(N)ncnc32)[C@H](O)[C@@H]1O + O=C(CCCCCCC(=O)Nc1ccccc1)NO [Vorinostat] (partner 1 µM)
Outline: as §1

[4] = compound: CC(C)=CC[C@@H](O)C1=CC(=O)c2c(O)ccc(O)c2C1=O [Shikonin] + C[C@@H](Oc1cc(-c2cnn(C3CCNCC3)c2)cnc1N)c1c(Cl)ccc(F)c1Cl [Crizotinib] (partner 1 µM)
Outline: as §1

Row | Cell Line | relative viability ([1]; first compound 0.01 µM) | relative viability ([1]; first compound 0.1 µM) | relative viability ([1]; first compound 0.3162 µM) | relative viability ([1]; first compound 1 µM) | relative viability ([2]; first compound 0.08 µM) | relative viability ([2]; first compound 0.253 µM) | relative viability ([2]; first compound 0.8 µM) | relative viability ([2]; first compound 2.53 µM) | relative viability ([2]; first compound 8 µM) | relative viability ([3]; first compound 0.08 µM) | relative viability ([3]; first compound 0.253 µM) | relative viability ([3]; first compound 0.8 µM) | relative viability ([3]; first compound 2.53 µM) | relative viability ([3]; first compound 8 µM) | relative viability ([4]; first compound 0.01 µM) | relative viability ([4]; first compound 0.1 µM) | relative viability ([4]; first compound 0.3162 µM) | relative viability ([4]; first compound 1 µM)
1 | NCI-H358 | 0.178 | 0.23 | 0.218 | 0.19 | 0.112 | 0.117 | 0.119 | 0.0915 | 0.112 | 0.725 | 0.629 | 0.721 | 0.714 | 0.613 | 0.699 | 0.484 | 0.619 | 0.63
2 | NCI-H1944 | 0.464 | 0.446 | 0.443 | 0.435 | 0.253 | 0.261 | 0.251 | 0.239 | 0.246 | 0.508 | 0.48 | 0.484 | 0.637 | 0.546 | 1.12 | 1.18 | 1.24 | 1.22
3 | EPLC-272H | 0.344 | 0.387 | 0.371 | 0.358 | 0.315 | 0.215 | 0.287 | 0.217 | 0.244 | 0.404 | 0.439 | 0.664 | 0.4 | 0.708 | 1.03 | 0.901 | 0.953 | 0.865
4 | NCI-H1915 | 0.271 | 0.286 | 0.268 | 0.258 | 0.443 | 0.401 | 0.434 | 0.388 | 0.426 | 0.495 | 0.582 | 0.483 | 0.475 | 0.485 | 0.904 | 1.1 | 0.915 | 1.07
5 | NCI-H650 | 0.295 | 0.314 | 0.334 | 0.27 | 0.689 | 0.768 | 0.691 | 0.731 | 0.696 | 0.414 | 0.444 | 0.459 | 0.426 | 0.401 | 0.818 | – | 0.643 | 0.804
6 | NCI-H441 | 0.249 | 0.26 | 0.258 | 0.206 | 0.599 | 0.66 | – | 0.716 | 0.577 | 0.811 | 0.641 | – | 0.784 | 0.654 | 0.921 | 0.782 | 0.887 | 0.771
7 | NCI-H23 | 0.335 | 0.306 | 0.333 | 0.277 | 0.41 | 0.378 | 0.281 | 0.355 | 0.546 | 0.582 | – | 0.557 | 0.639 | 0.549 | 0.576 | 0.489 | 0.515 | 0.502
8 | NCI-H661 | 0.51 | 0.552 | 0.572 | 0.529 | 0.365 | 0.345 | 0.362 | 0.35 | 0.37 | 0.77 | 0.834 | 0.812 | 0.809 | 0.785 | 1.24 | 1.11 | 0.967 | 0.957

Reference: the supplement of paper PMC10307832
